Data from patent US4208398A, “Technetium-labeled complexes, production and use thereof” (priority 1975, dated 1980).
Blank lines part the entries; values can stand above or below the compound they belong to.

Tests used:
[1] = water/octanol partition coefficient Ln(aw/ao) of the technetium complex; format: physicochemical; details: for Partition Coefficient = Ln(aw/ao): 27000 µM
Description: This ratio of distribution is quite easily followed by determining the activity of the respective phases of a two-phase system, in which the complex is added as a water solution to octanol in equal parts. […] (wherein aw is the radioactivity distributed in the aqueous phase and ao is the radioactivity distributed in the organic phase, at a pH in the range between pH 4 and pH 9), after thorough agitation to admix the phases followed by standing to accomplish complete separation.
The blood is on the mildly alkaline side at pH=7.4, while the urine, etc., is about pH 5 to pH 8.

[2] = kidney imaging in dogs with a gamma radiation detecting camera; format: in vivo; details: one-half hour after injection
Description: Next, 9 ml. of saline were added to the glass vial (held under N2 atmosphere). The pH of the vial contents was raised to pH 7.4, using 1 molar NaOH. The solution was transferred to a pharmaceutical vial, capped and sealed. Using a needle inserted through the rubber seal septum, the vial was evacuated to 5 mm. Hg pressure and purged with nitrogen to 1 atmospheric pressure. The vial contents were ready for injection and kidney imaging.

[3] = biological distribution of the 99m-Tc complex in mice as a function of time; format: in vivo, white female Swiss Webster mice; details: for Percentage of total 99m-Tc in mice, Carcass / Percentage of total 99m-Tc in mice, Gut / Percentage of total 99m-Tc in mice, Kidneys / Percentage of total 99m-Tc in mice, Liver / Percentage of total 99m-Tc in mice, Lungs / Percentage of total 99m-Tc in mice, Pancreas / Percentage of total 99m-Tc in mice, Spleen / Percentage of total 99m-Tc in mice, Stomach / Percentage of total 99m-Tc in mice, Spleen & Pancreas / Percentage of total 99m-Tc in mice, Urine: i.v. tail vein
Description: The mice were injected intravenously via the tail vein, sacrificed after appropriate time periods, then dissected. The isolated organs were assayed for radioactivity using a Packard series 410 A Auto Gamma Spectrometer.
Each data point represents an average value from three mice taken in three separate distribution studies.
The mice were tested and assayed for radioactivity as described in Example 1.

[4] = localization of technetium activity in a mouse after injection of the complex into the blood stream; format: in vivo; details: one hour after injection into the blood stream
Description: One hour after this complex was injected into the blood stream of a mouse, about 24 percent of technetium activity had localized in its kidneys.

[5] = mouse kidney distribution of Tc-99m pertechnetate (comparison); format: in vivo; details: at any time during a 24 hour period
[6] = in vivo

Compound: 99m-Tc-dimercaptosuccinic acid
- Partition Coefficient = Ln(aw/ao) ([1]; pH 4): 6.0
- Partition Coefficient = Ln(aw/ao) ([1]; pH 5): 6.8
- Partition Coefficient = Ln(aw/ao) ([1]; pH 6): 7.6
- Partition Coefficient = Ln(aw/ao) ([1]; pH 7): 8.5
- Partition Coefficient = Ln(aw/ao) ([1]; pH 8): 8.2
- Partition Coefficient = Ln(aw/ao) ([1]; pH 9): 8.1
- kidney images [2]: Good kidney images
- Percentage of total 99m-Tc in mice, Carcass ([3]; 0 hr): 40.9 Percentage of total 99m-Tc
- Percentage of total 99m-Tc in mice, Carcass ([3]; 0.5 hr): 30.4 Percentage of total 99m-Tc
- Percentage of total 99m-Tc in mice, Carcass ([3]; 1.0 hr): 26.9 Percentage of total 99m-Tc
- Percentage of total 99m-Tc in mice, Carcass ([3]; 2.0 hr): 20.4 Percentage of total 99m-Tc
- Percentage of total 99m-Tc in mice, Carcass ([3]; 4.0 hr): 21.3 Percentage of total 99m-Tc
- Percentage of total 99m-Tc in mice, Carcass ([3]; 24.0 hr): 8.0 Percentage of total 99m-Tc
- Percentage of total 99m-Tc in mice, Gut ([3]; 0 hr): 10.1 Percentage of total 99m-Tc
- Percentage of total 99m-Tc in mice, Gut ([3]; 0.5 hr): 6.1 Percentage of total 99m-Tc
- Percentage of total 99m-Tc in mice, Gut ([3]; 1.0 hr): 7.0 Percentage of total 99m-Tc
- Percentage of total 99m-Tc in mice, Gut ([3]; 2.0 hr): 4.3 Percentage of total 99m-Tc
- Percentage of total 99m-Tc in mice, Gut ([3]; 4.0 hr): 3.0 Percentage of total 99m-Tc
- Percentage of total 99m-Tc in mice, Gut ([3]; 24.0 hr): 1.7 Percentage of total 99m-Tc
- Percentage of total 99m-Tc in mice, Kidneys ([3]; 0 hr): 9.4 Percentage of total 99m-Tc
- Percentage of total 99m-Tc in mice, Kidneys ([3]; 0.5 hr): 29.3 Percentage of total 99m-Tc
- Percentage of total 99m-Tc in mice, Kidneys ([3]; 1.0 hr): 39.5 Percentage of total 99m-Tc
- Percentage of total 99m-Tc in mice, Kidneys ([3]; 2.0 hr): 45.6 Percentage of total 99m-Tc
- Percentage of total 99m-Tc in mice, Kidneys ([3]; 4.0 hr): 54.8 Percentage of total 99m-Tc
- Percentage of total 99m-Tc in mice, Kidneys ([3]; 24.0 hr): 75.5 Percentage of total 99m-Tc
- Percentage of total 99m-Tc in mice, Liver ([3]; 0 hr): 28.6 Percentage of total 99m-Tc
- Percentage of total 99m-Tc in mice, Liver ([3]; 0.5 hr): 12.8 Percentage of total 99m-Tc
- Percentage of total 99m-Tc in mice, Liver ([3]; 1.0 hr): 9.4 Percentage of total 99m-Tc
- Percentage of total 99m-Tc in mice, Liver ([3]; 2.0 hr): 6.8 Percentage of total 99m-Tc
- Percentage of total 99m-Tc in mice, Liver ([3]; 4.0 hr): 3.8 Percentage of total 99m-Tc
- Percentage of total 99m-Tc in mice, Liver ([3]; 24.0 hr): 2.7 Percentage of total 99m-Tc
- Percentage of total 99m-Tc in mice, Lungs ([3]; 0 hr): 7.4 Percentage of total 99m-Tc
- Percentage of total 99m-Tc in mice, Lungs ([3]; 0.5 hr): 2.3 Percentage of total 99m-Tc
- Percentage of total 99m-Tc in mice, Lungs ([3]; 1.0 hr): 1.7 Percentage of total 99m-Tc
- Percentage of total 99m-Tc in mice, Lungs ([3]; 2.0 hr): 0.8 Percentage of total 99m-Tc
- Percentage of total 99m-Tc in mice, Lungs ([3]; 4.0 hr): 0.7 Percentage of total 99m-Tc
- Percentage of total 99m-Tc in mice, Lungs ([3]; 24.0 hr): 0.0 Percentage of total 99m-Tc
- Percentage of total 99m-Tc in mice, Pancreas ([3]; 0 hr): 1.4 Percentage of total 99m-Tc
- Percentage of total 99m-Tc in mice, Pancreas ([3]; 0.5 hr): 0.7 Percentage of total 99m-Tc
- Percentage of total 99m-Tc in mice, Pancreas ([3]; 1.0 hr): 0.4 Percentage of total 99m-Tc
- Percentage of total 99m-Tc in mice, Pancreas ([3]; 2.0 hr): 0.3 Percentage of total 99m-Tc
- Percentage of total 99m-Tc in mice, Pancreas ([3]; 4.0 hr): 0.2 Percentage of total 99m-Tc
- Percentage of total 99m-Tc in mice, Pancreas ([3]; 24.0 hr): 0.2 Percentage of total 99m-Tc
- Percentage of total 99m-Tc in mice, Spleen ([3]; 0 hr): 0.3 Percentage of total 99m-Tc
- Percentage of total 99m-Tc in mice, Spleen ([3]; 0.5 hr): 0.4 Percentage of total 99m-Tc
- Percentage of total 99m-Tc in mice, Spleen ([3]; 1.0 hr): 0.2 Percentage of total 99m-Tc
- Percentage of total 99m-Tc in mice, Spleen ([3]; 2.0 hr): 0.3 Percentage of total 99m-Tc
- Percentage of total 99m-Tc in mice, Spleen ([3]; 4.0 hr): 0.1 Percentage of total 99m-Tc
- Percentage of total 99m-Tc in mice, Spleen ([3]; 24.0 hr): 0.1 Percentage of total 99m-Tc
- Percentage of total 99m-Tc in mice, Stomach ([3]; 0 hr): 1.8 Percentage of total 99m-Tc
- Percentage of total 99m-Tc in mice, Stomach ([3]; 0.5 hr): 1.1 Percentage of total 99m-Tc
- Percentage of total 99m-Tc in mice, Stomach ([3]; 1.0 hr): 1.2 Percentage of total 99m-Tc
- Percentage of total 99m-Tc in mice, Stomach ([3]; 2.0 hr): 0.5 Percentage of total 99m-Tc
- Percentage of total 99m-Tc in mice, Stomach ([3]; 4.0 hr): 0.4 Percentage of total 99m-Tc
- Percentage of total 99m-Tc in mice, Stomach ([3]; 24.0 hr): 0.4 Percentage of total 99m-Tc
- accumulation of activity in the animal's kidneys ([3]; mice, immediately after injection to 24 hour): begins to accumulate in the animal's kidneys immediately after injection of the Tc-DMSA complex and continues to concentrate during a 24 hour period

Compound: technetium-mercaptoacetic acid
- technetium activity found in urine [4]: A large part of the remaining activity
- technetium activity localized in kidneys [4]: about 24%

Compound: 99m-Tc-thioglucose
- clearance from kidney tissue [6]: rapidly cleared from kidney tissue
- Percentage of total 99m-Tc in mice, Carcass ([3]; 0 hr): 53.1 Percentage of total 99m-Tc
- Percentage of total 99m-Tc in mice, Carcass ([3]; 0.5 hr): 1.5 Percentage of total 99m-Tc
- Percentage of total 99m-Tc in mice, Carcass ([3]; 1.0 hr): 1.4 Percentage of total 99m-Tc
- Percentage of total 99m-Tc in mice, Gut ([3]; 0 hr): 13.3 Percentage of total 99m-Tc
- Percentage of total 99m-Tc in mice, Gut ([3]; 0.5 hr): 5.5 Percentage of total 99m-Tc
- Percentage of total 99m-Tc in mice, Gut ([3]; 1.0 hr): 1.1 Percentage of total 99m-Tc
- Percentage of total 99m-Tc in mice, Kidneys ([3]; 0 hr): 9.0 Percentage of total 99m-Tc
- Percentage of total 99m-Tc in mice, Kidneys ([3]; 0.5 hr): 2.8 Percentage of total 99m-Tc
- Percentage of total 99m-Tc in mice, Kidneys ([3]; 1.0 hr): 0.4 Percentage of total 99m-Tc
- Percentage of total 99m-Tc in mice, Liver ([3]; 0 hr): 18.9 Percentage of total 99m-Tc
- Percentage of total 99m-Tc in mice, Liver ([3]; 0.5 hr): 2.1 Percentage of total 99m-Tc
- Percentage of total 99m-Tc in mice, Liver ([3]; 1.0 hr): 3.3 Percentage of total 99m-Tc
- Percentage of total 99m-Tc in mice, Lungs ([3]; 0 hr): 2.9 Percentage of total 99m-Tc
- Percentage of total 99m-Tc in mice, Lungs ([3]; 0.5 hr): 0.3 Percentage of total 99m-Tc
- Percentage of total 99m-Tc in mice, Lungs ([3]; 1.0 hr): 0.08 Percentage of total 99m-Tc
- Percentage of total 99m-Tc in mice, Spleen & Pancreas ([3]; 0 hr): 2.1 Percentage of total 99m-Tc
- Percentage of total 99m-Tc in mice, Spleen & Pancreas ([3]; 0.5 hr): 0.1 Percentage of total 99m-Tc
- Percentage of total 99m-Tc in mice, Spleen & Pancreas ([3]; 1 hr): 0.2 Percentage of total 99m-Tc
- Percentage of total 99m-Tc in mice, Stomach ([3]; 0 hr): 0.8 Percentage of total 99m-Tc
- Percentage of total 99m-Tc in mice, Stomach ([3]; 0.5 hr): 0.8 Percentage of total 99m-Tc
- Percentage of total 99m-Tc in mice, Stomach ([3]; 1.0 hr): 0.06 Percentage of total 99m-Tc
- Percentage of total 99m-Tc in mice, Urine ([3]; 0 hr): 0.0 Percentage of total 99m-Tc
- Percentage of total 99m-Tc in mice, Urine ([3]; 0.5 hr): 89.9 Percentage of total 99m-Tc
- Percentage of total 99m-Tc in mice, Urine ([3]; 1 hr): 93.5 Percentage of total 99m-Tc
- elimination from the kidneys ([3]; mice, 0-1 hr): eliminated from the kidneys of the mice very rapidly

Compound: Technetium-3-mercaptopropanoic Acid
- Partition Coefficient - Ln(aw/ao) ([1]; pH 4): 2.4
- Partition Coefficient - Ln(aw/ao) ([1]; pH 5): 2.7
- Partition Coefficient - Ln(aw/ao) ([1]; pH 6): 3.1
- Partition Coefficient - Ln(aw/ao) ([1]; pH 7): 3.6
- Partition Coefficient - Ln(aw/ao) ([1]; pH 8): 4.1
- Partition Coefficient - Ln(aw/ao) ([1]; pH 9): 4.7

The remaining lines, values ahead:

- maximum kidney concentration of Tc-99m pertechnetate [5]: ≤ 3%
Compound: [O]=[99Tc](=[O])(=[O])[O-] [Tc-99m pertechnetate]

- clearance from kidney tissue [6]: rapidly cleared from kidney tissue
Compound: Technetium-mercaptosuccinic Acid [^99m Tc-mercapto succinic acid]
